The text below walks through data of patent US6303618A, “Cyclin dependent kinase inhibiting purine derivatives” (priority 1997, dated 2001).

One series concerns CDK1 (p34 cdc2)/cyclin B. As to the kind of experiment: CDK inhibition assay (histone H1 kinase), CDK1. The series is classed as biochemical, starfish (Marthasterias glacialis). The following applies: for IC50: CDK1, Table 1. The method, then: (§1) By way of example, however, a typical protocol is summarised below.
Histone H1 (type III-S (Sigma) 4° C.) 5 mg/ml in buffer C.
[^32 P]ATP […]: Make up using (multiples of) the following proportions:
DMSO cannot exceed 1% in the assay mixture. Inhibitors are added at 1/10 final assay volume and 10×final strength. DMSO stocks must therefore be diluted to 10×final desired concentration in ≤10% DMSO, ≥90% buffer C.
Start reaction in each tube at 30 second intervals by adding
5 ml [^32 P]ATP vortexing and placing in rack in waterbath at 30° C.
Terminate reaction after 10 min at 30 second intervals in tubes in same order by removing
25 ml reaction mix and spotting onto appropriately labelled filter, allowing to dry for 20-30 seconds and transferring to stirring 1% phosphoric acid.
Blank incubation is performed as above but without histone (add […] buffer C instead) Washing blank is […] ATP added directly to filter.

The target in series [1] is T1, CDK4 (Homo sapiens, UniProt P11802). As to the kind of experiment: CDK inhibition assay, CDK4. The series is classed as biochemical. The following applies: Table 1.
From the text: (§2) Apart from reference compounds, the compounds listed are accompanied by an NU reference or identification code number.
as §1

The next series is described as follows: Cytotoxicity. Format: cell-based.
For series [2], the system named is O^6 -methylguanine DNA-methyltransferase (MGMT).
The target in another series is CDK2 (Homo sapiens, UniProt P24941). Description: CDK inhibition assay, CDK2. The series is classed as biochemical. Particulars: for IC50: CDK2, Table 1, read-out: IC50 CDK2; for inhibition at 100 µM: read-out: % inhibition CDK2, at 100 μM.
From the text: as §2, §1

Series [3] can be described thus: Insolubility noted in the CDK assay.
In series [4] the test system is many common kinases other than CDK's. The following applies: in words; cited from earlier work.
For the next series, the system named is CDK. The following applies: in words; cited from earlier work.
The next series has as its system CDK6. Particulars: in words; cited from earlier work.
The target in series [5] is T1, CDK4. Particulars: in words; cited from earlier work.
Setting [6] is: read-out: % inhibition CDK2, at 10 μM.
Where [7] appears, read: at 10 μM, read-out: % inhibition CDK2.

Several values for one entry are separate records, joined by “and”; a condition that tells them apart may be missing. Identical values can stand only once. Like-named read-outs stand apart in the source and are kept apart here. A value given as a limit tells only on which side of the number the result lay.

T1 sequence (P11802 whole entry, species assumed): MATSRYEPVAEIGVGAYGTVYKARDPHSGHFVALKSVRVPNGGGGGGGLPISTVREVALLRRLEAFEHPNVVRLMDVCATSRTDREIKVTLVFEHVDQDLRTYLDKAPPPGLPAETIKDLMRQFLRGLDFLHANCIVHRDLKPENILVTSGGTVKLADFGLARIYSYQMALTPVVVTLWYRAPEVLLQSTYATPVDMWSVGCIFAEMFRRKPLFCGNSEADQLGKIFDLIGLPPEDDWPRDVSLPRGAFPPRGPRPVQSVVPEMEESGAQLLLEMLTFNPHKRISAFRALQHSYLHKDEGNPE
T1 sequence (P24385 whole entry partner, species assumed): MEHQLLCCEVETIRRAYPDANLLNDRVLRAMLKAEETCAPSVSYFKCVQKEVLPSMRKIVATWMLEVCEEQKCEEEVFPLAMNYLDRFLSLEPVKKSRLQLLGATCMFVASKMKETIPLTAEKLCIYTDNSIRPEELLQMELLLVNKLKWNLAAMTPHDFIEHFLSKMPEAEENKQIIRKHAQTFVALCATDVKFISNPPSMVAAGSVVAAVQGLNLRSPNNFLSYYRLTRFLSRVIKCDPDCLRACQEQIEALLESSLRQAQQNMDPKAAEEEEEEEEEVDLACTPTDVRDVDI

For `Nc1nc(OCC2CCCCC2)c2nc[nH]c2n1` [NU2058, O^6 -Cyclohexylmethylguanine], the “inhibitory activity against CDK1(cdc2)/cyclin B complexes” value with CDK1 (p34 cdc2)/cyclin B (in words, compared with olomoucine) is on record as “very high inhibitory activity, comparable to that of olomoucine”. The IC50 against CDK4 [1] (IC50 CDK4, CDK4) is 38 µM. Further, in “Cytotoxicity”, the cytotoxicity entry is recorded as “cytotoxic”. The “activity as MGMT inhibitor” value in [2] is listed as “very little activity”.

`Nc1nc(OCC2CC=CCC2)c2nc[nH]c2n1` (stereo not shown) [NU2073, O^6-(3'-Cyclohexenyl)methylguanine]: the IC50 on CDK1 (p34 cdc2)/cyclin B is 3.2 µM; on CDK2, 98 µM and 18.8 µM; on CDK4 [1] (CDK4, read-out: IC50 CDK4) it was 53 µM. For the same molecule, the inhibition at 100 µM on CDK2 stood at 87 ± 1%.

Consider `C=C(C)[C@@H]1CC=C(COc2nc(N)nc3[nH]cnc23)CC1` [NU2077], for which the concentration for half-maximal inhibition (IC50) on CDK1 (p34 cdc2)/cyclin B is 22 µM; on CDK4 [1] (CDK4, read-out: IC50 CDK4), more than 100 µM. Also, the inhibition at 10 µM at CDK2 (setting [6]) turned out to be 16 ± 26%. The inhibition at 25 µM on CDK2 (read-out: % inhibition CDK2, at 25 μM) was found to be 54%. Besides, the “insolubility in CDK2 assay” value in series [3] (at 100 μM) was “insol”.

Consider `CO[C@@H]1O[C@H](COc2nc(N)nc3[nH]cnc23)[C@H]2OC(C)(C)O[C@@H]12` [NU6012, O^6 -Ribofuranosylguanine], for which the “% inhibition CDK1” value with CDK1 (p34 cdc2)/cyclin B (at 100 μM) is 32%. In addition, the inhibition at 100 µM on CDK2 amounted to 16 ± 5%. Further, the IC50 at CDK4 [1] (CDK4, read-out: IC50 CDK4) is more than 100 µM.

`Nc1nc(OCC2CCCO2)c2nc[nH]c2n1` (stereo not shown) [NU6013, 2-amino-6-(2-tetrahydro-furanyl)-methyloxypurine]: in the series on CDK1 (p34 cdc2)/cyclin B (at 100 μM), the “% inhibition CDK1” value is reported as 48 ± 7%. Also, the IC50 at CDK2 is more than 500 µM; on CDK4 [1] (CDK4, read-out: IC50 CDK4), 261 µM. Also, the inhibition at 100 µM on CDK2 amounted to 39 ± 5%.

As to `Nc1nc(OCC23CC4CC(CC(C4)C2)C3)c2[nH]cnc2n1` [NU6014, 2-amino-6-adamantyl-methyloxypurine], on CDK2 (setting [6]), the inhibition at 10 µM was found to be 20 ± 4%. For the same molecule, on CDK4 [1] (CDK4, read-out: IC50 CDK4), the IC50 was more than 100 µM. In addition, the “insolubility in CDK2 assay” value in series [3] (at 100 μM) is “Insol”.

`CC1(C)O[C@H]2[C@@H](O1)[C@@H](COc1nc(N)nc3[nH]cnc13)O[C@@H]1OC(C)(C)O[C@@H]12` [NU6017]: the “% inhibition CDK1” value in the series with CDK1 (p34 cdc2)/cyclin B (at 100 μM) was 10 ± 6%. For the same molecule, the inhibition at 100 µM at CDK2 was 3 ± 7%. Besides, the IC50 on CDK4 [1] (CDK4, read-out: IC50 CDK4) was more than 100 µM.

With `Nc1nc(OCc2ccc3ccccc3c2)c2nc[nH]c2n1` [NU6018, 2-amino-6-(2-naphthyl)-methyloxypurine], in the series with CDK1 (p34 cdc2)/cyclin B (at 10 μM), the “% inhibition CDK1” value came out at 12 ± 4%. For the same molecule, the inhibition at 10 µM on CDK2 (setting [6]) is 9 ± 9%. For the same molecule, the IC50 at CDK4 [1] (CDK4, read-out: IC50 CDK4) is more than 100 µM. In addition, in series [3] (at 100 μM), the “insolubility in CDK2 assay” value is listed as “Insol”.

As to `Nc1nc(OCC2CCCCO2)c2nc[nH]c2n1` (stereo not shown) [NU6019, 2-amino-6-(2-tetrahydropyranyl)-methyloxypurine], in the series on CDK1 (p34 cdc2)/cyclin B (at 100 μM), the “% inhibition CDK1” value amounted to 51 ± 4%. In addition, the inhibition at 100 µM at CDK2 was found to be 44 ± 2%. Moreover, at CDK4 [1] (CDK4, read-out: IC50 CDK4), the half-maximal inhibitory concentration (IC50) is more than 100 µM.

For the molecule `Nc1nc(OCc2cccc3ccccc23)c2nc[nH]c2n1` [NU6020, 2-amino-6-(1-naphthyl)-methyloxypurine], the “% inhibition CDK1” value in the series with CDK1 (p34 cdc2)/cyclin B (at 10 μM) came to 10 ± 4%. Further, the inhibition at 10 µM at CDK2 (setting [6]) worked out at 3 ± 4%. Moreover, the IC50 at CDK4 [1] (CDK4, read-out: IC50 CDK4) is more than 100 µM. For the same molecule, in [3] (at 100 μM), the “insolubility in CDK2 assay” value is listed as “Insol”.

For `Nc1nc(OCCC2CCCCC2)c2[nH]cnc2n1` [NU6023, 2-amino-6-cyclohexylethyloxypurine], in the series on CDK1 (p34 cdc2)/cyclin B (at 100 μM), the “% inhibition CDK1” value is given as 68 ± 6%. Also, the IC50 on CDK2 was found to be 47.6 µM; at CDK4 [1] (CDK4, read-out: IC50 CDK4), 69 µM. Further, the inhibition at 100 µM at CDK2 was 58 ± 6%.

Turning to `Nc1nc(N)c(N=O)c(OCC2CCCCC2)n1` [NU6027, 2,6-diamino-4-cyclohexyl-methyloxy-5-nitroso-pyrimidine], the “insolubility in CDK2 assay” value in [3] (at 100 μM) was “Insol”.

On to `Nc1nc(OC[C@@H]2CCC(=O)N2)c2nc[nH]c2n1` [NU6031, 2-amino-6-[(S)-2'-oxopyrrolidin-5'-methyl]oxypurine], for which the “% inhibition CDK1” value with CDK1 (p34 cdc2)/cyclin B (at 100 μM) is reported as 26 ± 3%. Further, the IC50 at CDK2 was 314 µM; at CDK4 [1] (CDK4, read-out: IC50 CDK4), more than 1000 µM. On CDK2, the inhibition at 100 µM was 20 ± 2%.

Consider `Nc1nc(OC[C@H]2CCC(=O)N2)c2nc[nH]c2n1` [NU6032, 2-amino-6-[(R)-2'-oxopyrrolidin-5'-methyl]oxypurine], for which, in the series on CDK1 (p34 cdc2)/cyclin B (at 100 μM), the “% inhibition CDK1” value turned out to be 54 ± 2%. For the same molecule, on CDK2, the IC50 is 123 µM and the inhibition at 100 µM was found to be 37 ± 2%. Besides, the half-maximal inhibitory concentration (IC50) on CDK4 [1] (CDK4, read-out: IC50 CDK4) is more than 1000 µM.

As for `Nc1nc(OCC2CCCCC2)c2[nH]c(=O)[nH]c2n1` [NU6033, 2-Amino-6-cyclohexylmethyloxy-8-oxopurine], the “insolubility in CDK1 assay” value in series [3] (at 10 μM) was “insol”.

For `Nc1cc(OCC2CCCCC2)nc(N)n1` [NU6034, 2,6-diamino-4(cyclohexylmethoxy)-pyrimidine], at CDK2 (setting [6]), the inhibition at 10 µM worked out at 7 ± 3%. In [3] (at 100 μM), the “insolubility in CDK2 assay” value is on record as “Insol”.

In the case of `Nc1nc(N)c(N=Nc2ccc(Cl)cc2)c(OCC2CCCCC2)n1` [NU6037], the “% inhibition CDK1” value with CDK1 (p34 cdc2)/cyclin B (at 10 μM) is given as 3 ± 3%. Also, the inhibition at 10 µM at CDK2 (setting [7]) is 6 ± 4%. The “insolubility in CDK2 assay” value in series [3] (at 100 μM) was “Insol”.

As for `Nc1nc(N)c(N=O)c(OCC2CC=CCC2)n1` (stereo not shown) [NU6045], the “% inhibition CDK1” value in the series on CDK1 (p34 cdc2)/cyclin B (at 10 μM) is reported as 73 ± 3%. Besides, the IC50 on CDK2 was 6.1 µM. The inhibition at 10 µM on CDK2 (setting [6]) amounted to 70 ± 1%. Moreover, the “insolubility in CDK2 assay” value in series [3] (at 100 μM) is listed as “Insol”.

As for `Clc1nc(OCC2CCCCC2)c2[nH]cnc2n1` [NU6047, 2-chloro-6-cyclohexylmethoxypurine], the “% inhibition CDK1” value with CDK1 (p34 cdc2)/cyclin B (at 10 μM) is recorded as 6 ± 4%. Further, on CDK2 (setting [6]), the inhibition at 10 µM turned out to be 5 ± 3%. In addition, in series [3] (at 100 μM), the “insolubility in CDK1 assay” value was “Insol” and the “insolubility in CDK2 assay” value is “Insol”.

Turning to `CN(C)c1nc(OCC2CCCCC2)c2nc[nH]c2n1` [NU6048, 2-dimethylamino-6-cyclohexyl methoxypurine], in the series with CDK1 (p34 cdc2)/cyclin B (at 10 μM), the “% inhibition CDK1” value is 27 ± 6%. Also, the inhibition at 10 µM on CDK2 (setting [7]) is 31 ± 3%. For the same molecule, in [3] (at 100 μM), the “insolubility in CDK1 assay” value is “Insol” and the “insolubility in CDK2 assay” value is listed as “Insol”.

In the case of `Cn1cnc2c(NCc3ccccc3)nc(NCCO)nc21` [Olomoucine, 2-(2-hydroxyethylamino)-6-benzylamino-9-methyl-purine], the “inhibitory activity in relation to many common kinases other than CDK's” value in [4] is given as “total lack of inhibitory activity”. The mode of inhibition entry with CDK is reported as “competitive inhibitors for ATP binding”. Besides, the “activity against CDK6” value in the series with CDK6 is on record as “neither has been found to be active”.

Take `CC[C@H](CO)Nc1nc(NCc2ccccc2)c2ncn(C(C)C)c2n1` [roscovitine, 6-(benzylamino)-2(R)-[{1-(hydroxy-methyl)propyl}amino]-9-isopropylpurine]: the mode of inhibition result in the series on CDK was “competitive inhibitors for ATP binding”. Moreover, the “activity against CDK4” value on CDK4 [5] is “neither has been found to be active”.
